Tested on: Plasmodium falciparum
Assay: GSK_TCMDC: Inhibition of Plasmodium falciparum 3D7 in whole erythrocytes, using parasite LDH activity as an index of growth.
Type: functional, organism-based

Structure (SMILES) | XC50 (Plasmodium falciparum, 3D7) | XC50
CCNC(=O)N[C@@H]1CN[C@@H](C#Cc2cc3c(Nc4ccc(OCc5cccc(F)c5)c(Cl)c4)ncnc3s2)C1 | 1010 nM | –
Cc1ccc2c(=NN=Cc3ccc(N(C)C)cc3)cc(C)[nH]c2c1 | 881 nM | –
CNC(=O)c1cnc(Nc2ccc(N3CCOCC3)cc2)nc1Nc1cccc(O)c1 | 808 nM | –
CN(Cc1cccc(F)c1)C1CCN(c2cc(NC(=O)c3ccc(F)cc3)ccn2)C1 (stereo not drawn) | 1230 nM | –
COc1cc(NC(=O)Nc2cc(C)nc3ccccc23)cc(OC)c1 | 396 nM | –
Ic1cc(Nc2ncnc3ccsc23)ccc1OCc1ccccc1 | 773 nM | –
O=C(/C=C/c1ccc(Cl)c(Cl)c1)NC1C2CCC1CC(CN1CCC(c3c[nH]c4ccccc34)CC1)C2 (stereo not drawn) | 203 nM | –
CS(=O)(=O)c1ccc2c(c1)CCN(CCC1CCC(NC(=O)c3cc4cccc(Br)c4[nH]3)CC1)CC2 (stereo not drawn) | 1040 nM | –
CCCC(C)Nc1nc(C)cc(N[C@@H](Cc2ccccc2)C(=O)NCCc2ccccc2)n1 (stereo partly drawn) | 954 nM | –
O=C(/C=C/c1ccc(Cl)c(Cl)c1)NCCCCCN1CCC(NC(=O)Nc2ccc(C(F)(F)F)cc2)CC1 | 750 nM | –
CCOC(=O)c1cnc2c(C(F)(F)F)cccc2c1Nc1ccc(O)cc1 | 632 nM | –
CC(C)c1cc(Oc2c(I)cc(CCNC(=N)N)cc2I)ccc1O | 788 nM | –
C[C@H](NC(=O)c1c(CN2CCC(N3CCCCC3=O)CC2)c(-c2cccs2)nc2ccccc12)C1CCCCC1 | 898 nM | –
CC(C)[C@H](NCC(=O)c1ccccc1)C(=O)O | 783 nM | –
CCNc1cc(C(=O)N[C@@H](Cc2ccccc2)[C@H](O)CN[C@@H](C)c2ccccc2)cc(N2CCCC2=O)c1 | 666 nM | –
CC(C)(CNCc1ccc(Cl)c(Cl)c1)c1nc(-c2ccc(Cl)c(O)c2)c(-c2ccncc2)[nH]1 | 757 nM | –
CC(C)Sc1nc(-c2ccccc2)nc2c1COC(C)(C)C2 | 857 nM | –
Fc1ccc2[nH]c(-c3ccc(-c4cccc(CN5CCN(c6ccncc6)CC5)c4)cc3)nc2c1 | 85.7 nM | –
Cc1cccc2nc(-c3cccc(-c4cccc(NC(=O)COc5ccccc5C(N)=O)c4)c3)[nH]c12 | 161 nM | –
CCOC(=O)c1c(CN2CCCC2)n(-c2ccccc2)c2cc(Br)c(O)cc12 | 1010 nM | –
Cc1cc(N2CCCC2=O)ccc1-c1ccc(C(=O)N2CCC(Oc3cccc(Cl)c3)CC2)cc1 | 427 nM | –
CC(Cc1ccc(Oc2ccccc2)cc1)NCC(O)c1cccc(C(F)(F)F)c1 (stereo not drawn) | 674 nM | –
N#Cc1ccc(Sc2nnc(-c3ccccc3Cl)n2CC2CCCCC2)cc1[N+](=O)[O-] | 1160 nM | –
Cc1nc(O)c2c(ccc3ccc(CN(C)c4ccc(C(=O)N[C@@H](CCC(=O)O)C(=O)O)cc4)cc32)n1 | 879 nM | –
COc1ccc2nccc([C@@H](O)CN3CCC(NCc4ccc5c(c4)nnn5C(C)C)CC3)c2c1 | 642 nM | –

Structure (SMILES) | XC50 (Plasmodium falciparum, 3D7) | XC50
Cc1ccc(Cn2ccc3c4c(N)nc(N)nc4ccc32)cc1 | 3.2 nM | –
c1ccc(CNCc2ccc(-c3cccc(-c4nc5ccccc5[nH]4)c3)cc2)cc1 | 422 nM | –
COc1ccc(CN(C)CCOc2ccc(NC(=O)c3cccc4c(=O)cc(-c5ccccc5)[nH]c34)cc2)cc1OC | 921 nM | –
CS(=O)(=O)c1ccc(CNCc2ccc(-c3ccc(-c4nc5cc(C(F)(F)F)ccc5[nH]4)s3)cc2)cc1 | 156 nM | –
CCCCCCN1CCC(CNCc2cccc(Cl)c2)CC1 | 1220 nM | –
Cc1ccc2c(=NN=Cc3cccc(F)c3)cc(C)[nH]c2c1 | 857 nM | –
COc1ccc(-c2cccc(NC(=O)c3ccc(C#N)cc3)c2)cc1CN1CCCC1 | 696 nM | –
COc1ccc(-n2ccnc2SCC(=O)Nc2cccc(C(F)(F)F)c2)c(OC)c1 | 220 nM | –
CC(Cc1ccc(-c2nc3ccccc3[nH]2)cc1)NCC(O)c1cccc(C(F)(F)F)c1 (stereo not drawn) | 352 nM | –
CC[C@H](NC(=O)c1c(CN2CCC(N3CCCCC3)CC2)c(-c2ccccc2)nc2c(Cl)c(O)ccc12)c1ccccc1 | 734 nM | –
Cc1ccc(Cl)c2sc(N3CCN(C(=O)c4ccc([N+](=O)[O-])o4)CC3)nc12 | 325 nM | –
CCC(C)C#Cc1c(C)nc(N)nc1N (stereo not drawn) | 262 nM | –
CC(C)(C)C(=O)Nc1c(-c2cc(=O)oc3cc4c(cc23)CCC4)oc2ccccc12 | 1260 nM | –
COc1c(CNCCCCCCNCc2c(OC)c(OC)c3ccccc3c2OC)c(OC)c2ccccc2c1OC | 956 nM | –
COc1ccccc1-c1[nH]c2ccccc2c1CN1CCC(c2c(C)cccc2C)CC1 | 918 nM | –
CCNc1cc(C(=O)N[C@@H](Cc2ccccc2)[C@H](O)CNC(C)(C)CSCC(C)C)cc(N2CCCC2=O)c1 | 260 nM | –
CC(=O)c1ccc(NC(=O)CSc2nc(-c3ccccc3Cl)ns2)cc1 | 1130 nM | –
COc1ccc2nccc(N3CCCN(CCNS(=O)(=O)c4ccc5c(c4)NC(=O)CS5)CC3)c2n1 | 824 nM | –
CN1CCC(NCc2ccc(-c3ccc(S(=O)(=O)NCc4ccccc4)c(F)c3)cc2)CC1 | 611 nM | –
COC(=O)Nc1cc(C(F)(F)F)ccc1N1CCCC(NS(=O)(=O)c2ccc(C(C)(C)C)cc2)C1 (stereo not drawn) | 380 nM | –
O=C(NCCCCN1CCN(CC=Cc2ccccc2)CC1)c1ccc(NC(=O)c2cc(Cl)cc(Cl)c2)cc1 | 208 nM | –
c1cc(-c2ccc(CNCc3ccsc3)cc2)cc(-c2nc3ccccc3[nH]2)c1 | 156 nM | –
CC(C)(CNC(=O)[C@H]1CCCCN1)c1nc(-c2ccc(Cl)c(O)c2)c(-c2ccncc2)[nH]1 | 727 nM | –
CCc1cc2c(N)nc(N)nc2nc1-c1ccccc1 | 946 nM | –
COc1ccc2[nH]cc(C3CCN(CCCCCNC(=O)c4ccc(-c5ccccc5)cc4)CC3)c2c1 | 795 nM | –

Structure (SMILES) | XC50 (Plasmodium falciparum, 3D7) | XC50
Oc1cccc2c1CC(NCc1ccccc1)CC2 (stereo not drawn) | 887 nM | –
O=C1OC(c2ccccc2)(c2ccccn2)CN1C1CCN(Cc2cccn2-c2ccc(Cl)cc2)CC1 (stereo not drawn) | 475 nM | –
COc1cc(OC)c(OC)cc1CN1CCC2(CC1)CN(Cc1ccc(Cl)c(Cl)c1)C(=O)O2 | 815 nM | –
CC(=O)NCCNCc1cccc(C(=O)NCc2cccc(C(F)(F)F)c2)c1 | 1080 nM | –
CC(C)(C)c1cc(C(=O)Nc2ccc(C(=N)N)cc2)c(O)c(C(C)(C)C)c1 | 763 nM | –
COc1cc2c(cc1OC)CN(c1cc(N)c3cc(OC)c(OC)cc3n1)CC2 | 552 nM | –
CCOC(=O)c1ccc(N2CCN(c3cc(C)ccc3C)CC2)c(NC(=O)Nc2ccc(Cl)c(Cl)c2)c1 | 712 nM | –
O=C(C=Cc1cccc(Cl)c1Cl)NC1CCC(CN2CCC(c3c[nH]c4ccccc34)CC2)CC1 (stereo not drawn) | 680 nM | 1140 nM
CCN(CC)CCN(Cc1ccc(-c2ccc(C(F)(F)F)cc2)cc1)C(=O)Cn1c(CCc2ccc(F)c(F)c2F)nc(=O)c2ccc(F)cc21 | 736 nM | –
Cc1ccc(CN2CCN(CC(O)COc3ccc4c(c3)CCC4)CC2)cc1 (stereo not drawn) | 863 nM | –
COc1cccc(-c2csc(C(=O)NC3CCCCN(Cc4ccc(C(C)(C)C)cc4)C3)c2)c1 (stereo not drawn) | 887 nM | –
CCOc1cc(/C=N/Nc2nc3ccccc3[nH]2)ccc1OCc1ccc([N+](=O)[O-])cc1 | 995 nM | –
O=c1cc(NCCCNCc2scc3c(Cl)cc(C(F)(F)F)nc23)[nH]c2ccccc12 | 754 nM | –
NCc1ccc(CNCc2cccc(-c3ccc(-c4nc5ccccc5[nH]4)cc3)c2)cc1 | 717 nM | –
O=C(Nc1cccc(CN2CCCN(Cc3cccc(F)c3)CC2)c1)c1ccc(Cl)c(Cl)c1 | 923 nM | –
COc1ccc(NC(=O)/C=C/c2ccc(Cl)c(C(F)(F)F)c2)cc1OCCN(C(C)C)C(C)C | 626 nM | –
CC(CN(C)C)C(=O)Nc1cccc(-c2ccc(-c3nc4cc(C(F)(F)F)ccc4[nH]3)cc2)c1 (stereo not drawn) | 248 nM | –
COc1ccc(-c2nc(NC(=O)CS(=O)(=O)c3ccc(OC)cc3)sc2C)cc1 | 302 nM | –
CN1CCN(Cc2nc(-c3ccc4c(Nc5ccc(F)c(O)c5)ccnc4c3)cs2)CC1 | 171 nM | –
COc1ccc(CN2CCC(NCc3ccc(C(F)(F)F)cc3)CC2)cc1 | 916 nM | –
COc1ccc2c(NN=Cc3ccc(Cl)cc3)ccnc2c1 | 865 nM | –
COc1ccc(Nc2nccc(N3CCC(NC(=O)Nc4cc(C)ccc4C)C3)n2)cc1 (stereo not drawn) | 901 nM | –
COc1ccc2nccc([C@@H](O)CN3CCC(NS(=O)(=O)c4cc5c(cc4Cl)SCC(=O)N5)CC3)c2c1 | 982 nM | –
O=C(Nc1cc(Cl)cc(Cl)c1)N[C@H]1CCN(CCCCCNC(=O)C2CC2c2ccc(Cl)c(Cl)c2)C1 (stereo partly drawn) | 856 nM | –
CCC1(C)N=C(N)N=C(N)N1c1ccccc1 (stereo not drawn) | 792 nM | –

Structure (SMILES) | XC50 (Plasmodium falciparum, 3D7) | XC50
CC(=O)Nc1ncc(C(=O)Nc2ccc(-c3cccc(-c4nc5cc(F)ccc5[nH]4)c3)cc2)s1 | 354 nM | –
c1cc(Nc2nc(-c3ccc(-c4csc(Nc5ccncc5)n4)cc3)cs2)ccn1 | 117 nM | –
CN(C)C(=S)N/N=C1/C(=O)Nc2ccccc21 | 1050 nM | –
O=C(Nc1cccc(C(F)(F)F)c1)c1ccc(S(=O)(=O)NCC2CCCN2CC2CCCCC2)cc1 (stereo not drawn) | 751 nM | –
C=CCN1C(=O)c2[nH]nc(-c3cc(C)c(C)cc3O)c2C1c1cccc(Br)c1 (stereo not drawn) | 1160 nM | –
CC(C)CCNc1nc(NCCCc2ccccc2)c2cc(O)ccc2n1 | 166 nM | –
COc1ccc2nccc([C@@H](O)CN3CCC(NCc4nc5ccccc5[nH]4)CC3)c2c1 | 1070 nM | –
Cc1cc(SC(C)(C)C)cc2c(Cl)c(C(N)=O)cnc12 | 1090 nM | –
Cc1ccccc1CNc1nccc(NCCC(=O)Nc2ccccc2)n1 | 892 nM | –
COc1cc(NCC(C)CNCc2cn(Cc3ccccc3)c3ccccc23)nc2ccccc12 (stereo not drawn) | 633 nM | –
Cc1cc(N[C@@H](Cc2ccccc2)C(=O)NC2CCCC2)nc(NCc2ccccc2C)n1 | 1230 nM | –
COc1ccc(NC(=O)[C@H](Cc2ccccc2)Nc2cc(C)nc(NCCc3cccnc3)n2)cc1 | 760 nM | –
CN(c1ccc2c(c1)nc(Nc1cc(C(C)(C)C)on1)n2C)c1ccnc(Nc2ccc(CS(C)(=O)=O)cc2)n1 | 900 nM | –
O=C(Nc1cc(=O)[nH]c2nc(-c3ccccc3)nn12)C1CCCCC1 | 416 nM | –
O=C(NC1CCCCC1)N(CCCn1ccnc1)Cc1csc(-c2ccc(CNCc3ccccc3)cc2)n1 | 843 nM | –
COc1cccc2cc(C(=O)N[C@@H](CC(C)C)C(=O)Nc3cc(F)ccc3Br)oc12 | 965 nM | –
Oc1ccc(OCc2ccccn2)cc1 | 980 nM | –
CCN1CCN(CCCNc2ccnc3cc(Cl)ccc23)CC1 | 67 nM | –
CC(C)Cn1cc(C2CCN(CCN3CCC(CNC(=O)c4ccc(NC(=O)c5ccc(Cl)cc5)cc4)CC3)CC2)c2ccccc21 | 251 nM | –
O=C(O[C@H]1CN[C@H](C#Cc2cc3ncnc(Nc4ccc5c(ccn5S(=O)(=O)c5cccs5)c4)c3s2)C1)N1CCOCC1 | 1100 nM | –
CCCCOC(=O)C1=C(C)NC2=C(C(=O)CCC2)C1c1ccc(OC)c(Br)c1 (stereo not drawn) | 603 nM | –
O=C(Nc1ccc(OC2CCN(Cc3ccc(F)cc3)CC2)c(Cl)c1)c1ccco1 | 303 nM | –
